# According to a melting point compilation (Tetko et al.; mined from patent text by program, amines drawn as free bases though some values may be those of a salt):
row,Compound,melting point [°C]
1,Cc1cc(C)c2nc(C)c(NC(=O)Nc3cccc(C(F)(F)F)c3)c(-c3ccccc3Cl)c2c1,146 to 147
2,COc1cccc(C=CC(=O)C2C(=O)OC(=O)C(C(C)=O)=C2O)c1OC (centres undefined),175 to 176
3,CC(C)(C)C(=O)C(Cl)C(=O)Nc1ccccc1 (centres undefined),154
4,CCOc1ccc2cccnc2c1N,94 to 95
5,CCCc1ccc(-c2c3ccccc3c(-c3ccc(CCC)cc3)c3cc(Cl)ccc23)cc1,225 to 227
6,CC(C(=O)O)c1ccc(-c2ccc(O)cc2)cc1 (centres undefined),205 to 206
7,Cc1cc(Cl)cc(C(=O)NCC(C)S(C)=O)c1NC(=O)c1cc(C(F)(F)F)nn1-c1ncccc1Cl (centres undefined),229 to 232
8,Cc1cccc(-c2nc3cccnn3c2-c2ccnc(N)n2)c1,250 to 251
9,COc1cc2cc3c(Nc4ccc(Sc5nccn5C)c(Cl)c4)c(C#N)cnc3cc2cc1O,> 300
10,CC(C)(C)OC(=O)n1cnc(CN2C[C@@H](Cc3ccccc3)N(S(C)(=O)=O)Cc3cc(C#N)ccc32)c1,150 to 151
11,O=Cc1cccc2oc3ccccc3c12,66 to 68
12,C=CCn1c(NCC#N)nc(N2CCc3ccccc3CC2)c(C#N)c1=O,198 to 203
13,COc1ccc(-n2nc3c(cc2=O)CCCc2sc(CO)cc2-3)cc1,130 to 131
14,CCOC(=O)c1cn(CC)c2nc(N3CCN(C(C)=O)CC3)ncc2c1=O,208 to 210
15,Nc1nc2c(ncn2C2C=CC(CO)C2)c(=S)[nH]1 (centres undefined),> 250
16,C#CCOc1cccc(OC)c1-c1nc2cnncc2[nH]1,259
17,CCC1(CC)NC(=O)N(c2ccc(Cl)c(C(F)(F)F)c2)C1=O,86 to 87
18,CC(C)(C)OC(=O)N[C@@H](CC1CCCCC1)[C@@H](O)CCO,77 to 79
19,CCc1cc(Oc2cccnc2)c(S(C)(=O)=O)cc1C(=O)N=C(N)N,219 to 223
20,C#CC(O)(C(Oc1ccc(F)cc1)n1cncn1)C(C)(C)C (centres undefined),134 to 135
21,C#CC[C@H]1C(=O)O[C@@H]1C[C@@H](CCCCCCCCCCCCCCCCC)O[Si](C)(C)C(C)(C)C,62 to 63
22,CC(C)c1cccc(C(C)C)c1NC(=O)CNC(c1ccccc1)c1ccc(N(C)C)cc1 (centres undefined),116 to 117
23,CSc1ncc(CO)c(N)n1,124 to 127
24,COc1ccc(-c2ccc(C=O)cc2)cc1OC1CCCC1,86.5 to 87.5
25,CCOC(=O)C(CC#Cc1ccccc1)(NC(C)=O)C(=O)OCC,94 to 96.5

row,Compound,melting point [°C]
1,C(=C\c1nc(CSc2ccc(CCCn3ccnc3)cc2)co1)/c1ccccc1,74 to 75
2,COC(=O)C(O)c1cc(F)cc(F)c1 (centres undefined),61.8
3,COc1ccccc1NS(=O)(=O)c1ccc([N+](=O)[O-])cc1[N+](=O)[O-],172 to 173
4,O=C(O)c1csc(C(F)F)c1,131 to 132
5,CN1C2CCC1[C@H](CO)[C@@H](c1cccs1)C2 (some centres undefined),154 to 158
6,CCCC(=O)c1cnc2c(C)cccc2c1Nc1cc(OC)ccc1OC,115 to 116
7,O=C(NCc1ccc(Cl)cc1)c1cnc2cccc(O)c2c1O,235 to 238
8,CC(C)c1cccc(C(C)C)c1NC(=O)NCCN1CCN(CCSc2nc3ccccc3s2)CC1,147 to 149
9,CC(C)n1cc(C(=O)O)c2ccc([N+](=O)[O-])cc21,242 to 243
10,COc1cc(OC)cc(C(C)N(C)CCCOc2ccc(S(=O)(=O)c3c(C(C)C)c4ccccc4n3C)cc2)c1 (centres undefined),156
11,CN(C(=O)C(Cc1c[nH]c2ccccc12)NC(=O)OC(C)(C)C(Cl)(Cl)Cl)C(Cc1ccccc1)C(N)=O (racemic),100 to 105
12,O=C1NCCCc2cc(CCCl)sc21,156 to 158
13,COc1cc(OS(=O)(=O)OC(F)(F)F)c2c(=O)c3ccc(Cl)cc3n(C)c2c1,234 to 236
14,CCCCc1nc2c(N)nc3ccc(OCc4ccccc4)cc3c2n1CCCCNC(=O)N1CCOCC1,177 to 179
15,COc1ccccc1Oc1c(Cl)nc(-c2ncccn2)nc1OCCO,133 to 137
16,O=C(OCCOCn1cnc2c(Cl)nc(Cl)nc21)c1ccccc1,121 to 125
17,Cc1cc(C(=O)N2CC(O)C2)ncc1C(c1cc(F)ccc1F)S(=O)(=O)c1ccc(F)cc1 (centres undefined),219 to 221
18,Cc1oc(-c2ccccc2)nc1CCOc1ccc(C(=O)O)c(O)c1,192 to 194
19,Cc1nc(Cc2ccc([N+](=O)[O-])cc2)no1,66 to 67
20,CC(=O)OC1CC2=CC(=O)C3C4CCCC4(C)CCC3C2(C)C(OC(C)=O)C1 (centres undefined),220 to 221
21,COCc1nc(C=NNC(=S)SC)c[nH]1,150 to 154
22,COc1cc(OCCCO)c(C=CC(=O)c2ccc(S(=O)(=O)Nc3cc(C)on3)cc2)cc1-c1cccs1,178 to 182
23,CC(C)(C)OC(=O)NC1CCc2ccc(C=O)cc2C1 (centres undefined),98 to 101
24,O=C(c1c(F)cccc1F)N1COCN(c2ccc(SC(F)(F)C(F)(F)C(F)(F)F)cc2F)C1=O,44 to 46
